The target in the experiment is T1, human orexin type 2 receptor (Homo sapiens, UniProt O43614).
T1 construct: expressed in transfected cells
T1 sequence (O43614 1-444): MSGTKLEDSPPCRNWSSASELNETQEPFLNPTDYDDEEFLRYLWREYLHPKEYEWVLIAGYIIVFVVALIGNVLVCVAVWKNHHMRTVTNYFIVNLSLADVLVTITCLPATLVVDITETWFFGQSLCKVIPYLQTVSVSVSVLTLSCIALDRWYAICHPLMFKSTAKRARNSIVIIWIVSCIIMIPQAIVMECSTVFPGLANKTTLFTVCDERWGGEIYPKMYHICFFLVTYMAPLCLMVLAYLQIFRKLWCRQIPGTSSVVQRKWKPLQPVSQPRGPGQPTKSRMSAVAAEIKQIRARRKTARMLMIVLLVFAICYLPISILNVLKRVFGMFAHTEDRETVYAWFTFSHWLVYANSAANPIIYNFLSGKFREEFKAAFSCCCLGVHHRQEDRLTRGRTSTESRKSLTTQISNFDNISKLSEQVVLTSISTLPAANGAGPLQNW
Nature of the experiment: Measurement of orexin type 2 receptor agonist activity (calcium fluorescence, CHO cells forcibly expressing human OX2 receptor). The class given is cell-based. The settings on record: compound at 3 μM, DMSO = 0%, orexin A (human) 10 nM = 100%. Summed up: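 Agonism measured as Fluo-4 calcium fluorescence in CHO-K1 cells stably expressing human OX2 receptor, loaded 30 min at 37° C then 30 min at room temperature with probenecid. Signal recorded about 2 min 40 sec after compound; activity (%) normalised to DMSO (0%) and 10 nM human orexin A (100%).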

With `Cc1ccc2n(c1=O)C(COC1CCC(C3CCC3)CC1)C(NS(C)(=O)=O)CC2` (racemic) [Example 93, rac-N-[(3S,4R)-4-({[(1s,4S)-4-cyclobutylcyclohexyl]oxy}methyl)-7-methyl-6-oxo-1,3,4,6-tetrahydro-2H-quinolizin-3-yl]methanesulfonamide], the “OX2R agonist activity (3 μM, %)” value is recorded as 97%. Next, `Cc1ccc2n(c1=O)C(COC1CCC(C3CC3C)CC1)C(NS(C)(=O)=O)CC2` (racemic) [Example 97, N-{7-methyl-4-[({(1S,4S)-4-[(1RS,2SR)-2-methylcyclopropyl]cyclohexyl)oxy)methyl]-6-oxo-1,3,4,6-tetrahydro-2H-quinolizin-3-yl]methanesulfonamide]: 94%; `C=CC1CCC(OCC2C(NS(C)(=O)=O)CCc3ccc(C)c(=O)n32)CC1` (racemic) [Example 99, rac-N-[(3S,4R)-4-({[(1s,4S)-4-ethenylcyclohexyl]oxy}methyl)-7-methyl-6-oxo-1,3,4,6-tetrahydro-2H-quinolizin-3-yl]methanesulfonamide]: 91%. Next, `C#CC1CCC(OCC2C(NS(C)(=O)=O)CCc3ccc(C)c(=O)n32)CC1` (racemic) [Example 108, rac-N-[(3S,4R)-4-({[(1s,4S)-4-ethynylcyclohexyl]oxy}methyl)-7-methyl-6-oxo-1,3,4,6-tetrahydro-2H-quinolizin-3-yl]methanesulfonamide]: 101%; `CC#CC1CCC(OCC2C(NS(C)(=O)=O)CCc3ccc(C)c(=O)n32)CC1` (racemic) [Example 109, rac-N-[(3S,4R)-7-methyl-6-oxo-4-({[(1s,4S)-4-(prop-1-yn-1-yl)cyclohexyl]oxy}methyl)-1,3,4,6-tetrahydro-2H-quinolizin-3-yl]methanesulfonamide]: 96%; `C/C=C\C1CCC(OCC2C(NS(C)(=O)=O)CCc3ccc(C)c(=O)n32)CC1` (racemic) [Example 110, rac-N-{(3S,4R)-7-methyl-6-oxo-4-[({(1s,4S)-4-[(1Z)-prop-1-en-1-yl]cyclohexyl}oxy)methyl]-1,3,4,6-tetrahydro-2H-quinolizin-3-yl}methanesulfonamide]: 91%. Take `Cc1ccc2n(c1=O)C(COC1CCC(c3ccccn3)CC1)C(NS(C)(=O)=O)CC2` (racemic) [Example 116, rac-N-[(3S,4R)-7-methyl-6-oxo-4-({[(1s,4S)-4-(pyridin-2-yl)cyclohexyl]oxy)methyl)-1,3,4,6-tetrahydro-2H-quinolizin-3-yl]methanesulfonamide]: the “OX2R agonist activity (3 μM, %)” value worked out at 99%. With `Cc1ccc2n(c1=O)C(COC1CCC(C)CC1)C(NS(C)(=O)=O)CC2` [Example 1, rel-N-[(3S,4R)-7-methyl-4-({[(1s,4S)-4-methylcyclohexyl]oxy}methyl)-6-oxo-1,3,4,6-tetrahydro-2H-quinolizin-3-yl]methanesulfonamide], the “OX2R agonist activity (3 μM, %)” value was determined as 96%.

Turning to `Cc1ccc2n(c1=O)C(COC1CCC(C)CC1)C(NS(C)(=O)=O)CC2` [Example 5, rel-N-[(3S,4R)-7-methyl-4-({[(1r,4R)-4-methylcyclohexyl]oxy}methyl)-6-oxo-1,3,4,6-tetrahydro-2H-quinolizin-3-yl]methanesulfonamide], the “OX2R agonist activity (3 μM, %)” value is reported as 112%.

In the case of `CCC1CCC(OCC2C(NS(C)(=O)=O)CCc3ccc(C4CC4)c(=O)n32)CC1` [Example 66, rel-N-[(3S,4R)-7-cyclopropyl-4-({[(1s,4S)-4-ethylcyclohexyl]oxy}methyl)-6-oxo-1,3,4,6-tetrahydro-2H-quinolizin-3-yl]methanesulfonamide], the “OX2R agonist activity (3 μM, %)” value came out at 96%.

As to `CCc1ccc2n(c1=O)C(COC1CCC(C)CC1)C(NS(=O)(=O)CC)CC2` [Example 71, rel-N-[(3S,4R)-7-ethyl-4-(([(1s,4S)-4-methylcyclohexyl]oxy}methyl)-6-oxo-1,3,4,6-tetrahydro-2H-quinolizin-3-yl)ethanesulfonamide], the “OX2R agonist activity (3 μM, %)” value is 99%. Turning to `Cc1ccc2n(c1=O)C(COC1CCC(c3ccccc3C(F)(F)F)CC1)C(NS(C)(=O)=O)CC2` [Example 72, rel-N-{(3S,4R)-7-methyl-6-oxo-4-[({(1s,4S)-4-[2-(trifluoromethyl)phenyl]cyclohexyl}oxy)methyl]-1,3,4,6-tetrahydro-2H-quinolizin-3-yl]methanesulfonamide], the “OX2R agonist activity (3 μM, %)” value was 108%.

For the molecule `Cc1ccc2n(c1=O)C(COC1CCC(c3c(F)cccc3F)CC1)C(NS(C)(=O)=O)CC2` [Example 89, rel-N-[(3S,4R)-4-({[(1s,4S)-4-(2,6-difluorophenyl)cyclohexyl]oxy)methyl)-7-methyl-6-oxo-1,3,4,6-tetrahydro-2H-quinolizin-3-yl]methanesulfonamide], the “OX2R agonist activity (3 μM, %)” value is listed as 89%. As for `COc1ccccc1C1CCC(OCC2C(NS(C)(=O)=O)CCc3ccc(C)c(=O)n32)CC1` [Example 90, rel-N-[(3S,4R)-4-({[(1s,4S)-4-(2-methoxyphenyl)cyclohexyl]oxy}methyl)-7-methyl-6-oxo-1,3,4,6-tetrahydro-2H-quinolizin-3-yl]methanesulfonamide], the “OX2R agonist activity (3 μM, %)” value is 87%.

As for `CC1CCC(OCC2C(NS(C)(=O)=O)CCc3ccc(C4CC4)c(=O)n32)CC1` [Example 105, rel-N-[(3S,4R)-7-cyclopropyl-4-({[(1s,4S)-4-methylcyclohexyl]oxy)methyl)-6-oxo-1,3,4,6-tetrahydro-2H-quinolizin-3-yl]methanesulfonamide], the “OX2R agonist activity (3 μM, %)” value was found to be 84%. Next, `CCC1CCC(OCC2C(NS(C)(=O)=O)CCc3c(Br)cc(C)c(=O)n32)CC1` [Example 106, rel-N-[(3S,4R)-9-bromo-4-({[(1s,4S)-4-ethylcyclohexyl]oxy}methyl)-7-methyl-6-oxo-1,3,4,6-tetrahydro-2H-quinolizin-3-yl]methanesulfonamide]: 91%; `CCCOC1CCC(OCC2C(NS(C)(=O)=O)CCc3ccc(C)c(=O)n32)CC1` [Example 107, rel-N-[(3S,4R)-7-methyl-6-oxo-4-({[(1s,4S)-4-propoxycyclohexyl]oxy}methyl)-1,3,4,6-tetrahydro-2H-quinolizin-3-yl]methanesulfonamide]: 65%. Take `Cc1ccc2n(c1=O)C(COC1CCC(OCC3CC3)CC1)C(NS(C)(=O)=O)CC2` [Example 114, rel-N-[(3S,4R)-4-(([(1s,4S)-4-(cyclopropylmethoxy)cyclohexyl]oxy}methyl)-7-methyl-6-oxo-1,3,4,6-tetrahydro-2H-quinolizin-3-yl]methanesulfonamide]: the “OX2R agonist activity (3 μM, %)” value was 69%. Regarding `CCC1CCC(OCC2C(NS(C)(=O)=O)CCc3c(C4CC4)cc(C)c(=O)n32)CC1` [Example 115, rel-N-[(3S,4R)-9-cyclopropyl-4-({[(1s,4S)-4-ethylcyclohexyl]oxy)methyl)-7-methyl-6-oxo-1,3,4,6-tetrahydro-2H-quinolizin-3-yl]methanesulfonamide], the “OX2R agonist activity (3 μM, %)” value is 100%. Next, `CC#CC1CCC(OCC2C(NS(=O)(=O)N(C)C)CCc3ccc(C)c(=O)n32)CC1` [Example 144, rel-N,N-dimethyl-N′-[(3S,4R)-7-methyl-6-oxo-4-({[(1s,4S)-4-(prop-1-yn-1-yl)cyclohexyl]oxy}methyl)-1,3,4,6-tetrahydro-2H-quinolizin-3-yl]sulfuric diamide]: 99%.

These data come from US12448377B2, “Heterocyclic compound” (Takeda Pharmaceutical Company Limited, priority 2019, dated 2025).
